# Assays:
# Format in all cases: in vivo
# [1] = tested on: roses of the type Belle Rose; assay: Effect of oxytocin on the survival of cut roses of the type Belle Rose (appearance scores after pretreatment in cold-storage room); conditions: oxytocin 1, 5 and 10 μM in the presence of Chrysal, in particular 10 μM; cold-storage room 3 days, then tap water at room temperature; FIGS. 5 and 6
# Procedure: The stalks of newly delivered roses of the type Belle Rose were cut (1 cm from the lowest part of the stem) and thereafter the roses were placed in buckets containing tap water or tap water with different doses of oxytocin (0, 1, 5 and 10 μM in the presence of Chrysal) and kept in a cold-storage room for 3 days. Eight to nine roses were included in each bucket.
# Thereafter, the roses were moved to a home like setting with normal room temperature. The stalks of the roses were again cut and the rose bouquets were placed in vases filled with tap water.
# The appearance of the roses was assessed at 0, 2, 4, 7 10 and 13 days after being placed in the home like setting according to the criteria shown in Table 2 (see Example 1). The assessment criteria were: degree of bud opening (i.e. degree of flower turn-out), degree of drooping (i.e. how bent the stalk was, freshness of the petals, freshness of the sepals and freshness of the stem leaves. Each assessment criterion was given a score from 1-5 according to the description. An average score based on all the assessment criteria was also calculated.
# [2] = tested on: roses of the type Upper class; assay: Effect of oxytocin on the survival of cut roses of the type Upper class (appearance scores after pretreatment in cold-storage room); conditions: oxytocin 1-10 μmolar in water, cold-storage room 18 days, then tap water at room temperature; assessed at 4, 9, 15 and 20 days; FIG. 2
# Source text: The stalks of newly delivered roses of the type Upper class were cut (1 cm from the lowest part of the stem) and thereafter the roses were placed in buckets containing water with different doses of oxytocin (For doses see Table 1 and kept in a cold-storage room for 18 days. Four roses were included in each treatment group.
# Thereafter, the roses were moved to a home-like setting with normal room temperature. The stalk of the roses was cut again and the roses were placed in individual vases filled with tap water.
# (§1) The assessment criteria were: degree of bud opening (i.e. degree of flower turn-out), degree of drooping (i.e. how bent the stalk was, freshness of the petals, freshness of the sepals and freshness of stem leaves. Each assessment criterion was given a score from 1-5 according to the description. An average score based on all the assessment criteria was also calculated.
# [3] = tested on: roses of the type Furiosa; assay: Effect of oxytocin on the florescence of cut roses of the type Furiosa (appearance scores after pretreatment in cold-storage room)
# Procedure: The stalks of newly delivered roses of the type Furiosa were cut (1 cm from the lowest part of the stem) and thereafter the roses were placed in buckets containing water with different doses of oxytocin (0, 0.1, 1 and 10 μM) and kept in a cold-storage room for […]. Nine roses were included in each treatment group.
# Thereafter, the roses were moved to a home like setting with normal room temperature. The stalks of the roses were again cut and the roses were placed in individual vases filled with tap water.
# as §1, with “freshness of the stem leaves.” for “freshness of stem leaves.”
substance,measurement,setting,value
oxytocin,duration of time during which the roses kept fresh and attractive,[1],increased in response to oxytocin
same,level of florescence,[1],increased the level of florescence
same,"individual assessments (bud opening, drooping, freshness of petals, sepals, stem leaves)",[2],in a positive direction
same,duration of time during which the roses kept fresh and attractive (days with bud opening score above 1.5),"[3]; in particular with 10 μM oxytocin, after being put in tap water in home-like setting, FIG. 4",increased in response to oxytocin
same,degree of bud opening,"[3]; oxytocin 0.1, 1 and 10 μM, in particular 10 μM, pretreatment in cold-storage room, then tap water at room temperature, FIG. 3",increased the degree of bud opening
same,effect on degree of bud opening by length of oxytocin treatment,"[3]; treatment with oxytocin for 3 days versus 6 hours in cold-storage room, FIG. 3",more pronounced after treatment with oxytocin for 3 days than for 6 hours

# Reference: patent US12402621B2, “Method for increasing longevity and/or bud opening of cut flowers” (LETAVIS AB, priority 2019, dated 2025)
